Measured values published in US20230128194A1, “METHODS AND COMPOSITIONS TO ALTER HEPATIC GABA RELEASE TO TREAT OBESITY-RELATED CONDITIONS” (ARIZONA BOARD OF REGENTS ON BEHALF OF THE UNIVERSITY OF …, priority 2017, published 2023).

Biological target: T1, BGT1 (Mus musculus, UniProt P31651)
T1 construct: from tissue; host or cells: mouse liver slices
T1 sequence (P31651 1-614): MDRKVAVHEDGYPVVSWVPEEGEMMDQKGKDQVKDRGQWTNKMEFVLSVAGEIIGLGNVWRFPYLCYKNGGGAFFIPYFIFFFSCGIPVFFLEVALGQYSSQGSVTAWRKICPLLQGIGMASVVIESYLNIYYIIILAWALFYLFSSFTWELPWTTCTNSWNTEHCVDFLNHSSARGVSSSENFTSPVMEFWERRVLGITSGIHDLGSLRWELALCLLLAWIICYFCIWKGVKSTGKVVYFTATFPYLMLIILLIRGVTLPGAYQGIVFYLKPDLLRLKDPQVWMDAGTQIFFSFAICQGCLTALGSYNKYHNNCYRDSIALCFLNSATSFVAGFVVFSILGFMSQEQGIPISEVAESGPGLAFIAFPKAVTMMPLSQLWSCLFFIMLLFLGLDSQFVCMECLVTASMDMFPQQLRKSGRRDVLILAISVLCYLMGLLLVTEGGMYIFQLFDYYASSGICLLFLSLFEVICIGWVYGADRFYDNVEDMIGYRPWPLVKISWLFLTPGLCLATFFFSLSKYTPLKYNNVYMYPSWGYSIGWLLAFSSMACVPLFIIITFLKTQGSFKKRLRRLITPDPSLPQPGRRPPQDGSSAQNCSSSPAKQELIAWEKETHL
Test: liver slice media GABA with BGT1 inhibitor
Format: cell-based
Conditions: liver slices, 1 mM
Source text: Two liver slices were taken from each mouse.

## C[N+](C)(C)CC(=O)O [betaine]
  media GABA concentrations: increases
